Measurements reported in ChEMBL document CHEMBL5512620, “Design and synthesis of forsythin derivatives as anti-inflammatory agents for acute lung injury” (Eur J Med Chem, 2024).
The source made the active and inactive calls. No cut-off for these calls is given here.

Columns and labels:
[1] = tested on: RAW264.7; assay: Cytotoxicity activity mouse RAW264.7 cells assessed as effect on cell viability at 25 uM incubated for 24 hrs by MTT assay; format: toxicity, cell-based; settings: raw264.7, 24 h
[2] = tested on: Mus musculus; assay: Antiinflammatory activity in LPS-induced acute lung injury BALB/c mouse model assessed as reduction in lung edema at 20 mg/kg, po administered for 3 days followed by LPS-induction for 1 hr and measured after 6 hrs by H and E staining based analysis; format: functional, organism-based; settings: time 79.0 hrs
[3] = tested on: Mus musculus; assay: Antiinflammatory activity in LPS-induced acute lung injury BALB/c mouse model assessed as downregulation of TNF-alpha level in BALF at 5 to 20 mg/kg, po administered for 3 days followed by LPS-induction for 1 hr and measured after 6 hrs by ELISA analysis; format: functional, organism-based; settings: dose 5-20 mg/kg, time 79.0 hrs
[4] = tested on: Mus musculus; assay: Antiinflammatory activity in LPS-induced acute lung injury BALB/c mouse model assessed as reduction in NO production in BALF at 20 mg/kg, po administered for 3 days followed by LPS-induction for 1 hr and measured after 6 hrs by Griess reagent based analysis; format: functional, organism-based; settings: time 79.0 hrs
[5] = tested on: RAW264.7; assay: Antiinflammatory activity in mouse RAW264.7 cells assessed as reduction in LPS-induced JNK phosphorylation at 6.25 to 25 uM preincubated with compound for 1 hr followed by LPS-induction and measured after 24 hrs by Western blot analysis; format: functional, cell-based; settings: dose 6.25-25 µM, time 25.0 hrs
[6] = tested on: RAW264.7; assay: Antiinflammatory activity in mouse RAW264.7 cells assessed as reduction in LPS-induced IL-6 production preincubated with compound for 1 hr followed by LPS-induction and measured after 24 hrs by ELISA analysis relative to control; format: functional, cell-based
[7] = tested on: RAW264.7; assay: Antiinflammatory activity in mouse RAW264.7 cells assessed as reduction in LPS-induced NO release preincubated with compound for 1 hr followed by LPS-induction and measured after 24 hrs by ELISA analysis relative to control; format: functional, cell-based
[8] = tested on: Mus musculus; assay: Antiinflammatory activity in LPS-induced acute lung injury BALB/c mouse model assessed as downregulation of IL-6 level in BALF at 5 to 20 mg/kg, po administered for 3 days followed by LPS-induction for 1 hr and measured after 6 hrs by ELISA analysis; format: functional, organism-based; settings: dose 5-20 mg/kg, time 79.0 hrs
[9] = tested on: RAW264.7; assay: Antiinflammatory activity in mouse RAW264.7 cells assessed as inhibition of LPS-induced IL-6 production at 25 uM preincubated with compound for 1 hr followed by LPS-induction and measured after 24 hrs by ELISA analysis relative to control; format: functional; settings: time 25 hrs
[10] = tested on: RAW264.7; assay: Antiinflammatory activity in mouse RAW264.7 cells assessed as inhibition of LPS-induced IL-6 secretion by measuring fold change at 25 uM preincubated with compound for 1 hr followed by LPS-induction and measured after 24 hrs by ELISA analysis relative to Forsythin; format: functional; settings: time 25 hrs
[11] = tested on: Mus musculus; assay: Antiinflammatory activity in LPS-induced acute lung injury BALB/c mouse model assessed as reduction in W/D weight gain ratio in lung at 5 to 20 mg/kg, po administered for 3 days followed by LPS-induction for 1 hr and measured after 6 hrs; format: functional, organism-based; settings: dose 5-20 mg/kg, time 79.0 hrs
[12] = tested on: RAW264.7; assay: Antiinflammatory activity in mouse RAW264.7 cells assessed as reduction in LPS-induced ERK phosphorylation at 6.25 to 25 uM preincubated with compound for 1 hr followed by LPS-induction and measured after 24 hrs by Western blot analysis; format: functional, cell-based; settings: dose 6.25-25 µM, time 25.0 hrs
[13] = tested on: Mus musculus; assay: Antiinflammatory activity in LPS-induced po dosed acute lung injury BALB/c mouse model assessed as inhibition of COX-2 expression administered for 3 days followed by LPS-induction for 1 hr and measured after 6 hrs by Western blot analysis; format: functional, organism-based; settings: dose 5-20 mg/kg, time 79.0 hrs
[14] = tested on: RAW264.7; assay: Antiinflammatory activity in mouse RAW264.7 cells assessed as reduction in LPS-induced TNF-alpha production preincubated with compound for 1 hr followed by LPS-induction and measured after 24 hrs by ELISA analysis relative to control; format: functional, cell-based
[15] = tested on: RAW264.7; assay: Inhibition of NF-kappaB signaling pathway in LPS-induced mouse RAW264.7 cells assessed as reduction in phosphorylated IkappaB to IkappaB relative expression at 6.25 to 25 uM pretreated with compound for 1 hr followed by LPS-induction and measured after 24 hrs by Western blot analysis; format: cell-based; settings: dose 6.25-25 µM, time 25.0 hrs
[16] = tested on: Mus musculus; assay: Antiinflammatory activity in LPS-induced acute lung injury BALB/c mouse model assessed as reduction in NO production in BALF at 5 to 20 mg/kg, po administered for 3 days followed by LPS-induction for 1 hr and measured after 6 hrs by Griess reagent based analysis; format: functional, organism-based; settings: dose 5-20 mg/kg, time 79.0 hrs
[17] = tested on: RAW264.7; assay: Anti-inflammatory activity in mouse RAW264.7 cells assessed as inhibition of LPS-induced iNOS […] expression preincubated with compound for 1 hr followed by LPS stimulation and measured after 24 hrs by Western blot analysis; format: functional, cell-based; settings: dose 6.25-25 µM, time 25.0 hrs
[18] = tested on: Mus musculus; assay: Antiinflammatory activity in LPS-induced acute lung injury BALB/c mouse model assessed as reduction in cell infiltration in lung at 20 mg/kg, po administered for 3 days followed by LPS-induction for 1 hr and measured after 6 hrs by H and E staining based analysis; format: functional, organism-based; settings: time 79.0 hrs
[19] = tested on: RAW264.7; assay: Anti-inflammatory activity in mouse RAW264.7 cells assessed as inhibition of LPS-induced iNOS […] expression at 25 uM preincubated with compound for 1 hr followed by LPS stimulation and measured after 24 hrs by Western blot analysis; format: functional, cell-based; settings: time 25.0 hrs
[20] = tested on: Mus musculus; assay: Antiinflammatory activity in LPS-induced acute lung injury BALB/c mouse model assessed as downregulation of IL-6 level in BALF at 20 mg/kg, po administered for 3 days followed by LPS-induction for 1 hr and measured after 6 hrs by ELISA analysis; format: functional, organism-based; settings: time 79.0 hrs
[21] = target: Transcription factor p65 (Mus musculus) (UniProt Q04207); assay: Inhibition of NF-kappaB p65 phosphorylation in mouse RAW264.7 cells at 6.25 to 25 uM pretreated with compound for 1 hr followed by LPS-induction and measured after 24 hrs by Western blot analysis; format: cell-based; settings: dose 6.25-25 µM, time 25.0 hrs
[22] = tested on: Mus musculus; assay: Antiinflammatory activity in LPS-induced acute lung injury BALB/c mouse model assessed as improvement in alveolar structure at 20 mg/kg, po administered for 3 days followed by LPS-induction for 1 hr and measured after 6 hrs by H and E staining based analysis; format: functional, organism-based; settings: time 79.0 hrs
[23] = tested on: RAW264.7; assay: Anti-inflammatory activity in mouse RAW264.7 cells assessed as inhibition of LPS-induced COX-2 […] expression preincubated with compound for 1 hr followed by LPS stimulation and measured after 24 hrs by Western blot analysis; format: functional, cell-based; settings: dose 6.25-25 µM, time 25.0 hrs
[24] = tested on: Mus musculus; assay: Antiinflammatory activity in LPS-induced acute lung injury BALB/c mouse model assessed as downregulation of TNF-alpha level in BALF at 20 mg/kg, po administered for 3 days followed by LPS-induction for 1 hr and measured after 6 hrs by ELISA analysis; format: functional, organism-based; settings: time 79.0 hrs
[25] = tested on: RAW264.7; assay: Anti-inflammatory activity in mouse RAW264.7 cells assessed as inhibition of LPS-induced COX-2 […] expression at 25 uM preincubated with compound for 1 hr followed by LPS stimulation and measured after 24 hrs by Western blot analysis; format: functional, cell-based; settings: time 25.0 hrs
[26] = target: Transcription factor p65 (Mus musculus) (UniProt Q04207); assay: Inhibition of NF-kappaB signaling pathway in LPS-induced mouse RAW264.7 cells assessed as reduction in phosphorylated NF-kappaB to p65 relative expression at 6.25 to 25 uM pretreated with compound for 1 hr followed by LPS-induction and measured after 24 hrs by Western blot analysis; format: cell-based; settings: dose 6.25-25 µM, time 25.0 hrs
[27] = tested on: RAW264.7; assay: Antiinflammatory activity in mouse RAW264.7 cells assessed as reduction in LPS-induced p38 phosphorylation at 6.25 to 25 uM preincubated with compound for 1 hr followed by LPS-induction and measured after 24 hrs by Western blot analysis; format: functional, cell-based; settings: dose 6.25-25 µM, time 25.0 hrs
[28] = tested on: Mus musculus; assay: Antiinflammatory activity in LPS-induced po dosed acute lung injury BALB/c mouse model assessed as inhibition of iNOS expression administered for 3 days followed by LPS-induction for 1 hr and measured after 6 hrs by Western blot analysis; format: functional, organism-based; settings: dose 5-20 mg/kg, time 79.0 hrs
[29] = tested on: RAW264.7; assay: Inhibition of IkappaB phosphorylation in mouse RAW264.7 cells at 6.25 to 25 uM pretreated with compound for 1 hr followed by LPS-induction and measured after 24 hrs by Western blot analysis; format: cell-based; settings: dose 6.25-25 µM, time 25.0 hrs
[30] = tested on: RAW264.7; assay: Antiinflammatory activity in mouse RAW264.7 cells assessed as inhibition of LPS-induced IL-6 release at 25 uM preincubated with compound for 1 hr followed by LPS-induction and measured after 24 hrs by ELISA analysis; format: functional, cell-based; settings: time 25.0 hrs

Chain of Transcription factor p65 (Mus musculus) (Q04207 whole entry): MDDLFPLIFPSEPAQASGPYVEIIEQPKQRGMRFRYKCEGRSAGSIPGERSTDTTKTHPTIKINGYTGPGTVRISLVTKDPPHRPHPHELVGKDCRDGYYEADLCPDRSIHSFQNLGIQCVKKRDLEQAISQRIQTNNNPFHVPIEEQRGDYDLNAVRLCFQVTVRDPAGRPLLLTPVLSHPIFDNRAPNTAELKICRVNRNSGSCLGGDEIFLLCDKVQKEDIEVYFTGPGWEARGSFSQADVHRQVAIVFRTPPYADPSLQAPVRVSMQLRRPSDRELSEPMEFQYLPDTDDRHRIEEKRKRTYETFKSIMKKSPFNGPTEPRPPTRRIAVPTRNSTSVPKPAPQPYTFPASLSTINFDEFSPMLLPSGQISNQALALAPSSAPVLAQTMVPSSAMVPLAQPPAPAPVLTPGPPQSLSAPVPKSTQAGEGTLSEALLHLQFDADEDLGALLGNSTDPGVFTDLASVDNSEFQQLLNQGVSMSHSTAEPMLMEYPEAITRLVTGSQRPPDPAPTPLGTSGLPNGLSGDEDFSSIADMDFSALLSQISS

COc1ccc([C@H]2OC[C@@H]3[C@H]2CO[C@@H]3c2ccc(O[C@@H]3O[C@@H](COC(=O)c4cnc5ccccc5c4)[C@H](O)[C@@H](O)[C@@H]3O)c(OC)c2)cc1OC (stereo in doubt)
Activity [1]: Non-Toxic

COc1ccc([C@@H]2OC[C@H]3[C@@H]2CO[C@@H]3c2ccc(O[C@H]3O[C@H](COC(=O)[C@H](Cc4ccccc4)NC(=O)OC(C)(C)C)[C@@H](O)[C@H](O)[C@H]3O)c(OC)c2)cc1OC
Activity [2]: Active | Activity [3]: Active | Activity [4]: Active | Activity [5]: Active | IC50 [6]: 4.93 µM | IC50 [7]: 10.9 µM | Activity [8]: Active | inhibition at 25 µM [9]: 91.8% | fold change (FC) [10]: 7.5 | Activity [11]: Active | Activity [12]: Active | Activity [13]: Dose-Dependent Effect | IC50 [14]: > 25 µM | inhibition [15]: Active | Activity [16]: Active | Activity [17]: Dose-Dependent Effect | Activity [18]: Active | Activity [19]: Active | Activity [20]: Active | inhibition [21]: Active | Activity [22]: Active | Activity [1]: Non-Toxic | Activity [23]: Dose-Dependent Effect | Activity [24]: Active | Activity [25]: Active | inhibition [26]: Active | Activity [27]: inactive | Activity [28]: Dose-Dependent Effect | inhibition [29]: Active | Activity [30]: Active

COc1ccc([C@@H]2OC[C@H]3[C@@H]2CO[C@@H]3c2ccc(O[C@H]3O[C@H](COC(=O)/C=C/c4ccccc4)[C@@H](O)[C@H](O)[C@H]3O)c(OC)c2)cc1OC
Activity [1]: Non-Toxic

COc1ccc(/C=C/C(=O)OC[C@H]2O[C@H](Oc3ccc([C@H]4OC[C@H]5[C@@H]4CO[C@H]5c4ccc(OC)c(OC)c4)cc3OC)[C@H](O)[C@@H](O)[C@@H]2O)cc1
Activity [1]: Non-Toxic

COc1ccc([C@@H]2OC[C@H]3[C@@H]2CO[C@@H]3c2ccc(O[C@H]3O[C@H](COC(=O)c4cn(-c5ccc(Cl)cc5)nn4)[C@@H](O)[C@H](O)[C@H]3O)c(OC)c2)cc1OC
Activity [1]: Non-Toxic

COc1cccc(C(=O)OC[C@H]2O[C@H](Oc3ccc([C@H]4OC[C@H]5[C@@H]4CO[C@H]5c4ccc(OC)c(OC)c4)cc3OC)[C@H](O)[C@@H](O)[C@@H]2O)c1
Activity [1]: Non-Toxic

COc1ccc(-n2cc(C(=O)OC[C@H]3O[C@H](Oc4ccc([C@H]5OC[C@H]6[C@@H]5CO[C@H]6c5ccc(OC)c(OC)c5)cc4OC)[C@H](O)[C@@H](O)[C@@H]3O)nn2)cc1
Activity [1]: Non-Toxic

COc1ccc([C@H]2OC[C@@H]3[C@H]2CO[C@@H]3c2ccc(O[C@@H]3O[C@@H](COC(=O)c4cccc5ncccc45)[C@H](O)[C@@H](O)[C@@H]3O)c(OC)c2)cc1OC (stereo in doubt)
Activity [1]: Non-Toxic
